Reference: the supplement of paper PMC10307832

How the values were obtained:
Assay in all cases: relative viability (nuclei count vs DMSO), 5 days (fraction); higher = more cells survive
NCI-H1666 = tested on: NCI-H1666
Summary of the method: (§1)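 Five library-drug doses in √10 steps were combined with a fixed anchor-drug dose, or a single drug was given alone, by pin tool to lung cancer cell lines in 1536-well plates the day after seeding. Nuclei were stained and counted after 5 days. Relative viability is the nuclei count in treated wells over that in vehicle wells, taken as the median of duplicate plates.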

CAL-12T = tested on: CAL-12T
Summary of the method: as §1

NCI-H1650 = tested on: NCI-H1650
Summary of the method: as §1

HCC-366 = tested on: HCC-366
Summary of the method: as §1

NCI-H838 = tested on: NCI-H838
Summary of the method: as §1

NCI-H2023 = tested on: NCI-H2023
Summary of the method: as §1

COR-L23 = tested on: COR-L23
Summary of the method: as §1

SW 900 = tested on: SW 900
Summary of the method: as §1

LK-2 = tested on: LK-2
Summary of the method: as §1

201T = tested on: 201T
Summary of the method: as §1

EKVX = tested on: EKVX
Summary of the method: as §1

NCI-H3122 = tested on: NCI-H3122
Summary of the method: as §1

COR-L 105 = tested on: COR-L 105
Summary of the method: as §1

NCI-H2009 = tested on: NCI-H2009
Summary of the method: as §1

NCI-H441 = tested on: NCI-H441
Summary of the method: as §1

LU99A = tested on: LU99A
Summary of the method: as §1

NCI-H1437 = tested on: NCI-H1437
Summary of the method: as §1

PC-14 = tested on: PC-14
Summary of the method: as §1

ABC-1 = tested on: ABC-1
Summary of the method: as §1

NCI-H661 = tested on: NCI-H661
Summary of the method: as §1

HARA = tested on: HARA
Summary of the method: as §1

NCI-H2170 = tested on: NCI-H2170
Summary of the method: as §1

BEN = tested on: BEN
Summary of the method: as §1

NCI-H727 = tested on: NCI-H727
Summary of the method: as §1

## CC(C)Oc1cc(Nc2nc(N[C@@H](C)c3ccc(F)cn3)ncc2Cl)n[nH]1 [AZ23] + N=C(N)NC(=N)NCCc1ccccc1 [Phenformin] (partner 250 µM)
NCI-H1666; first compound 0.01 µM
  relative viability: 0.566
NCI-H1666; first compound 0.03162 µM
  relative viability: 0.802
NCI-H1666; first compound 0.3162 µM
  relative viability: 0.538
CAL-12T; first compound 0.03162 µM
  relative viability: 0.591
CAL-12T; first compound 0.3162 µM
  relative viability: 0.524
NCI-H1650; first compound 0.03162 µM
  relative viability: 0.537
NCI-H1650; first compound 0.3162 µM
  relative viability: 0.405
HCC-366; first compound 0.01 µM
  relative viability: 0.614
HCC-366; first compound 0.03162 µM
  relative viability: 0.641
HCC-366; first compound 0.3162 µM
  relative viability: 0.658
NCI-H838; first compound 0.01 µM
  relative viability: 0.546
NCI-H838; first compound 0.03162 µM
  relative viability: 0.586
NCI-H838; first compound 0.3162 µM
  relative viability: 0.597
NCI-H2023; first compound 0.03162 µM
  relative viability: 0.506
NCI-H2023; first compound 0.3162 µM
  relative viability: 0.481
COR-L23; first compound 0.01 µM
  relative viability: 0.367
COR-L23; first compound 0.03162 µM
  relative viability: 0.512
COR-L23; first compound 0.3162 µM
  relative viability: 0.462
SW 900; first compound 0.01 µM
  relative viability: 0.734
SW 900; first compound 0.03162 µM
  relative viability: 0.879
SW 900; first compound 0.3162 µM
  relative viability: 0.799
LK-2; first compound 0.01 µM
  relative viability: 0.303
LK-2; first compound 0.03162 µM
  relative viability: 0.401
LK-2; first compound 0.3162 µM
  relative viability: 0.311
201T; first compound 0.01 µM
  relative viability: 0.539
201T; first compound 0.03162 µM
  relative viability: 0.438
201T; first compound 0.3162 µM
  relative viability: 0.486
EKVX; first compound 0.01 µM
  relative viability: 0.224
EKVX; first compound 0.03162 µM
  relative viability: 0.237
EKVX; first compound 0.3162 µM
  relative viability: 0.231
NCI-H3122; first compound 0.01 µM
  relative viability: 0.387
NCI-H3122; first compound 0.03162 µM
  relative viability: 0.439
NCI-H3122; first compound 0.3162 µM
  relative viability: 0.373
COR-L 105; first compound 0.01 µM
  relative viability: 0.456
COR-L 105; first compound 0.03162 µM
  relative viability: 0.577
COR-L 105; first compound 0.3162 µM
  relative viability: 0.508
NCI-H2009; first compound 0.01 µM
  relative viability: 0.508
NCI-H2009; first compound 0.03162 µM
  relative viability: 0.539
NCI-H2009; first compound 0.3162 µM
  relative viability: 0.63
NCI-H441; first compound 0.01 µM
  relative viability: 0.865
NCI-H441; first compound 0.03162 µM
  relative viability: 0.841
NCI-H441; first compound 0.3162 µM
  relative viability: 0.906
LU99A; first compound 0.01 µM
  relative viability: 0.912
LU99A; first compound 0.03162 µM
  relative viability: 0.976
LU99A; first compound 0.3162 µM
  relative viability: 0.882
NCI-H1437; first compound 0.01 µM
  relative viability: 0.298
NCI-H1437; first compound 0.03162 µM
  relative viability: 0.336
NCI-H1437; first compound 0.3162 µM
  relative viability: 0.345
PC-14; first compound 0.03162 µM
  relative viability: 0.781
PC-14; first compound 0.3162 µM
  relative viability: 0.703
ABC-1; first compound 0.01 µM
  relative viability: 0.211
ABC-1; first compound 0.03162 µM
  relative viability: 0.221
ABC-1; first compound 0.3162 µM
  relative viability: 0.236
NCI-H661; first compound 0.01 µM
  relative viability: 0.293
NCI-H661; first compound 0.03162 µM
  relative viability: 0.257
NCI-H661; first compound 0.3162 µM
  relative viability: 0.241
HARA; first compound 0.03162 µM
  relative viability: 0.589
HARA; first compound 0.3162 µM
  relative viability: 0.471
NCI-H2170; first compound 0.01 µM
  relative viability: 0.463
NCI-H2170; first compound 0.03162 µM
  relative viability: 0.424
NCI-H2170; first compound 0.3162 µM
  relative viability: 0.489
BEN; first compound 0.01 µM
  relative viability: 0.292
BEN; first compound 0.03162 µM
  relative viability: 0.282
BEN; first compound 0.3162 µM
  relative viability: 0.268
NCI-H727; first compound 0.01 µM
  relative viability: 0.571
NCI-H727; first compound 0.03162 µM
  relative viability: 0.552
NCI-H727; first compound 0.3162 µM
  relative viability: 0.485
